Consider two molecules from patent publication US7326772B2, “Peptide for assaying hERG channel binding” (Penta Biotech, Inc., priority 2005, dated 2008).

As usually defined, the Ki is the dissociation constant of the complex between target and ligand, obtained from inhibition or displacement. A lower Ki goes with higher affinity.

The target of one series is T1, hERG channel (Homo sapiens, UniProt Q12809).
T1 construct: host or cells: HEK-293 (hERG/HEK-293 cell line, clone 16), membrane preparation
T1 sequence (Q12809 whole entry, looked up): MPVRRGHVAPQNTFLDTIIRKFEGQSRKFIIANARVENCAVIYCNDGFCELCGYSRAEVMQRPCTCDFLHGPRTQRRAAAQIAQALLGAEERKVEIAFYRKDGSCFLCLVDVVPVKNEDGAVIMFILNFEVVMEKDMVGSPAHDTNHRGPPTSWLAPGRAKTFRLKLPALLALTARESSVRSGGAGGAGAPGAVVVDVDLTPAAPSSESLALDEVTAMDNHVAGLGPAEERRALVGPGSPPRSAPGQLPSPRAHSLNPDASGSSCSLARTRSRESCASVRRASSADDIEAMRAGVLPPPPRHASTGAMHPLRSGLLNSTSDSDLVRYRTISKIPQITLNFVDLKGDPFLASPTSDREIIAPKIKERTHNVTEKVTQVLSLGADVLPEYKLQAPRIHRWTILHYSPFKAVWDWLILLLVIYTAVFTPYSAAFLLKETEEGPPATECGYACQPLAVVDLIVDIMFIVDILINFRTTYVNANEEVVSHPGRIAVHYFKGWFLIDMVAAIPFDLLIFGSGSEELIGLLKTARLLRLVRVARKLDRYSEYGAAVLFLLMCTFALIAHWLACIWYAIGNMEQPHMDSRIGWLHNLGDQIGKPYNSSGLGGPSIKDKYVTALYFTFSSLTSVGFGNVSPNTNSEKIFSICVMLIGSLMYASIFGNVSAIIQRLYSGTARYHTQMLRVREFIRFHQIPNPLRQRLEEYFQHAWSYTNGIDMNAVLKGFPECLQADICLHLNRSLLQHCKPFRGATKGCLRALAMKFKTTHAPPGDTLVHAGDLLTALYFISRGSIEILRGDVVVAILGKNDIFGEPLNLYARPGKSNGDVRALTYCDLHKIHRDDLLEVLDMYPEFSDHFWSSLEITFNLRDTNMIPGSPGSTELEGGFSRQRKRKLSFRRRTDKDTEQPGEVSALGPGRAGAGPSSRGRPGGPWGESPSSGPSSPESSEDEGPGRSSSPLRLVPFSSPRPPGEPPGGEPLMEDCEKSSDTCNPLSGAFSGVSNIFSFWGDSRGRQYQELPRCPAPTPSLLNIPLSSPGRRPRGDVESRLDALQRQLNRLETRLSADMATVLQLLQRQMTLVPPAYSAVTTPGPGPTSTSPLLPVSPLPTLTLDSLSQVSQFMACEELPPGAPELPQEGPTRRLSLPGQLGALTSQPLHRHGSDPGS
Description: Ki (average). An excerpt: Table printed on a drawing sheet, FIG. 4
Title: Ki of BeKm-1 Analogs in Two Independent FlashBlue Competition Assays.
Head of the field: Ki (average)
First copying reader's note: The table is panel A of FIG. 4; panel B is a plot and is left out.

Series [1] addresses T2, hERG K+ channel membranes (hERG/HEK-293 cell line, clone 16) (Homo sapiens, UniProt Q12809).
T2 construct: host or cells: HEK-293 (hERG/HEK-293 cell line, clone 16), membrane preparation
Description: homogeneous [125I]-BeKm-1 FlashBlue competition assay. The format is binding. The following applies: [125I]-BeKm-1 at 0.17 nM; acetate and TFA salts; one hour at room temperature. The procedure: Acetate and TFA salts of (SeC)^7-BeKm-1 were tested in homogeneous [^125I]-BeKm-1 competition assays using FlashBlue GPCR beads and hERG K^+ channel membranes derived from Perkin Elmer's hERG/HEK-293 cell line (clone 16). […] Assays were run in buffer composed of 20 mM Hepes/Tris pH 7.2, 100 μM KCl, 0.5% BSA. 1.25 μg hERG K^+ channel membranes and 62.5 μg FlashBlue GPCR beads were added to each well of a 384-well white Optiplate. The total assay volume for each well was 40 μl. Plates were spun briefly after a one hour incubation at room temperature prior to signal detection with a TopCount apparatus.

Where a name gives a salt, the structure may show the parent alone. Bridge positions count the residues as written; N and C are the ends. Peptide text beside a SMILES is read from it.

T2 sequence (Q12809 whole entry): as the sequence (Q12809 whole entry, looked up) above

`CC[C@H](C)[C@H](NC(=O)[C@H](CC(=O)O)NC(=O)[C@@H](NC(=O)[C@@H]1CCCN1C(=O)[C@@H](N)CCCNC(=N)N)[C@@H](C)O)C(=O)N[C@@H](CCCCN)C(=O)N[C@H]1CSSC[C@@H]2NC(=O)[C@H](CCCNC(=N)N)NC(=O)CNC(=O)[C@H](CC(N)=O)NC(=O)[C@H]([C@@H](C)O)NC(=O)[C@H](CCCCN)NC(=O)CNC(=O)[C@H](Cc3ccccc3)NC(=O)[C@H](CCCNC(=N)N)NC(=O)[C@H](CO)NC(=O)[C@H](CCCCN)NC(=O)[C@@H]3CSSC[C@@H](C(=O)N[C@@H](Cc4ccccc4)C(=O)O)NC(=O)[C@H](CC(=O)O)NC(=O)[C@H](CSSC[C@H](NC(=O)[C@H](CCC(N)=O)NC(=O)[C@H](Cc4ccc(O)cc4)NC(=O)[C@H](CO)NC(=O)[C@H](CCC(=O)O)NC(=O)[C@H](CO)NC1=O)C(=O)N[C@@H](Cc1ccccc1)C(=O)N1CCC[C@H]1C(=O)N[C@@H](C(C)C)C(=O)N3)NC(=O)[C@H](Cc1ccccc1)NC(=O)CNC(=O)[C@H](CC(N)=O)NC(=O)[C@H](C(C)C)NC2=O` [BeKm-1 TFA Salt] (H-RPTDIKCSESYQCFPVCKSRFGKTNGRCVNGFCDCF-OH; disulfide 7-28, 13-33, 17-35 (inferred)): the affinity at hERG channel, expressed as Ki, was 0.35 nM.
On to “RPTDIKCSESYQCFPVCKSRFGKTNGRCVNGFCDCF [(SeC)^7-BeKm-1]”, for which the “affinity for the hERG channel (Ki, FIG. 4)” value in series [1] is “comparable to that of native BeKm-1”.
